Source: patent US20040002537A1, “Use of statins in the treatment of autoimmune disease” (priority 2002, published 2004)

How the values were obtained:
[1] = test system: STAT6; experiment: Western blot for STAT6 phosphorylation in draining lymph node cells of treated mice; type: in vivo, mouse; settings: SJL/J mice, 1 mg/kg and 10 mg/kg oral, 10 days after EAE induction, FIG. 5 lanes 2 and 3
Procedure: (§1) Western Blot Analysis for STAT-6 and STAT-4 Phosphorylation. Western Blot analysis was performed as described in Garren et al. (2001) Immunity 15:15, with minor modifications. Lymph nodes from control and atorvastatin-treated mice were homogenized in T-PER protein extraction buffer (Pierce,), with 20 μg/ml aprotinin, 20 μg/ml leupeptin, 1.6 mM Pefablock SC (Roche), 10 mM NaF, 1 mM Na3VO4 and 1 mM Na4P2O7 (Sigma, St. Louis, Mo.). All procedures were handled on ice. As a positive control, lymph node cells from naive mice were isolated and cultured for one hour with mouse recombinant IL-4 (10 ng/ml) or INF-γ (100 units/ml), for STAT6 and STAT4 expression respectively. Protein concentrations were determined by BCA protein assay (Pierce). Lysate was added to 3×SDS loading buffer (Cell Signaling Technology) with 40 mM DTT. Products were separated by electrophoresis on a 4-15% SDS-PAGE gradient gel (BioRad). Pre-stained markers (Invitrogen) were used to determine MW. Gels were blotted to PVDF membranes at 100 V in 25 mM Tris, 192 mM glycine and 20% (v/v) methanol, then blocked 1 hr at RT with Tris-buffered saline (TBS) containing 0.1% Tween-20 and 5% nonfat dry milk. […]

[2] = test system: MHC II; settings: through the effect on the CIITA p IV gene; cited from earlier work
[3] = test system: PLP p139-151-stimulated spleen cells
Procedure: Ag Specific Ex-vivo T Cell Proliferation Assay. […] Lymph node cells (LNCs) or splenocytes were cultured in vitro for specific proliferative response to the specific encephalogenic peptide (PLP 139-151, MOG 35-55 or MBP Ac1-11, respectively). LNCs were prepared in 96-well microtiter plates in a volume of 0.2 ml/well at a concentration of 5×10^6 cells/ml. The culture medium consisted of enriched RPMI (RPMI 1640 supplemented with L-glutamine [2 mM], sodium pyruvate [1 mM], nonessential amino acids [0.1 mM], penicillin [100 U/ml], streptomycin [0.1 mg/ml], 2-ME [5×10^−5 M]) supplemented with 1% autologous fresh normal mouse serum with the addition of different peptides concentrations. Cultures were incubated in 37° C. in humidified air containing 5% CO2. Cultures taken from SJL/J or C57BL/6 mice were incubated for 72h whereas cultures from MBPAc-1-11 Tg mice were incubated for 48 hours and then were pulsed for 18 hr with 1 μCi/well of [^3H] thymidine. The cells were then harvested and counted in a β counter.

[4] = test system: MBP Ac1-11-induced EAE in MBP Ac1-11 Tg mice; experiment: MBP Ac1-11-induced acute EAE, oral atorvastatin; type: in vivo, mouse; settings: FIG. 1E
[5] = test system: Th1/Th2 cytokines (IL-2, IFN-γ, IL-4, IL-10); experiment: Cytokine profile determination by ELISA, ex vivo lymph node and spleen cells; type: in vivo, mouse
Procedure: Cytokine Profile Determination. Lymph node cells and spleen cells from EAE donors were stimulated in vitro (2.5×10^6 cells/ml) in 24-well plates with or without the encephalogenic peptide or with […] as positive control. Cell culture supernatants were collected at different time points for measurements of cytokine levels: 48 hours for IL-2 , 72 hours for IFN-γ and TNF α, and 120 hours for […]. Cytokine levels were determined using specific ELISA kits for the corresponding cytokines according to the manufacturer's protocols (PharMingen, San Diego, Calif., USA).

[6] = test system: MOG p35-55-induced EAE in C57BL/6 mice; experiment: MOG p35-55-induced chronic EAE, oral atorvastatin; type: in vivo, mouse; settings: daily oral
[7] = test system: PLP p139-151-induced EAE in SJL/J mice; experiment: PLP p139-151-induced relapsing EAE, oral atorvastatin; type: in vivo, mouse
[8] = test system: microglia and astrocytes; settings: cited from earlier work
[9] = test system: STAT6; experiment: Western blot for STAT6 phosphorylation, naive lymph node cells cultured with IL-4 (positive control); type: cell-based, mouse; settings: 10 ng/ml for one hour, FIG. 5 lane 4
Procedure: as §1

CC(C)c1c(C(=O)Nc2ccccc2)c(-c2ccccc2)c(-c2ccc(F)cc2)n1CC[C@@H](O)C[C@@H](O)CC(=O)O [atorvastatin]
Phosphorylated STAT6 in lymph nodes (Western blot) [1]: phosphorylated STAT6 is seen
Expression of MHC II [2]: could inhibit the expression of MHC II
PLP p139-151-specific proliferative responses (3H-thymidine incorporation) ([3]; cells from SJL/J mice treated with 1 or 10 mg/kg, FIG. 4A): suppressed in a dose-related fashion
Cell death in the in vitro cultures ([3]; lymphocytes from treated mice): not observed increased cell death
Acute EAE progression [4]: successfully prevented acute EAE progression
Th2 bias (proliferation and cytokines) in other strains ([5]; C57BL/6 and MBP Ac1-11-specific transgenic mice): almost identical Th2 bias
Secretion of IL-10 ([5]; SJL/J mice, 10 mg/kg, ELISA, FIG. 4E): observed at the higher treatment dose
Production of IL-2 ([5]; SJL/J mice, 1 and 10 mg/kg, ELISA, FIG. 4B): reduced, although to a much greater extent in mice treated with 10 mg/kg
Secretion of IFN-γ ([5]; SJL/J mice, both treatment doses (1 and 10 mg/kg), ELISA, FIG. 4C): dramatic reduction
IL-4 secretion ([5]; SJL/J mice, both treatment doses (1 and 10 mg/kg), ELISA, FIG. 4D): induced at both treatment doses
EAE clinical score, treatment starting at EAE onset ([6]; C57Bl/6 female mice, 1 mg/kg or 10 mg/kg, FIG. 1A): suppressed EAE induction
EAE clinical score, treatment after onset ([6]; C57Bl/6 mice, FIG. 1B): ameliorated EAE
Ongoing relapsing EAE, treatment begun after recovery from acute EAE ([7]; FIG. 1D): reversal of ongoing relapsing EAE
Prevention of relapsing EAE ([7]; treatment at onset, FIG. 1C): effective in prevention of relapsing EAE

CC[C@H](C)C(=O)O[C@H]1C[C@@H](C)C=C2C=C[C@H](C)[C@H](CC[C@@H]3C[C@@H](O)CC(=O)O3)[C@H]21 [lovastatin]
Production of iNOS and proinflammatory cytokines (TNFα, IL-1β and IL-6) [8]: inhibited production

B1: mouse recombinant IL-4: mouse recombinant IL-4 (10 ng/ml), positive control for STAT6 phosphorylation (protein, UniProt P07750 21-140, looked up)
Interleukin-4: HIHGCDKNHLREIIGILNEVTGEGTPCTEMDVPNVLTATKNTTESELVCRASKVLRIFYLKHGKTPCLKKNSSVLMELQRLFRAFRCLDSSISCTMNESKSTSLKDFLESLKSIMQMDYS
Phosphorylated STAT6 in naive lymph node cells (Western blot) [9]: phosphorylated STAT6 is seen
